Results as given in ChEMBL document CHEMBL1128565, “Aspartyl alpha-((diphenylphosphinyl)oxy)methyl ketones as novel inhibitors of interleukin-1 beta converting enzyme. Utility of the diphenylphosphinic acid leaving group for the inhibition of cysteine proteases” (J Med Chem, 1995).

Assays:
Caspase-1 (Homo sapiens) = molecular target: T1, Caspase-1 (Homo sapiens) (UniProt P29466); assay: Inhibition of interleukin-1-beta converting enzyme at pH 7.4, 37 degree C
T1 sequence (whole entry): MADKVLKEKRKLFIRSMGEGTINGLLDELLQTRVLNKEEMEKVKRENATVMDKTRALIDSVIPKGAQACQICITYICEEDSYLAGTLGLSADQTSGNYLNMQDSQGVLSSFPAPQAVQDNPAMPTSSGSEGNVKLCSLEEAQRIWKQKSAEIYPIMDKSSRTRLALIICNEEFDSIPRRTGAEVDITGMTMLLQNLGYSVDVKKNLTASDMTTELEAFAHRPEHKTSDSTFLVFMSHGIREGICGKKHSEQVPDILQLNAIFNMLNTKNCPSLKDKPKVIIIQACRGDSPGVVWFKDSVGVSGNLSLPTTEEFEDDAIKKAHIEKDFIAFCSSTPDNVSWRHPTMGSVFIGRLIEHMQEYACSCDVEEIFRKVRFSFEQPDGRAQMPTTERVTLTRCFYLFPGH

[1] = molecular target: T2, Calpain-1 catalytic subunit (Homo sapiens) (UniProt P07384); assay: Inhibition of Human erythrocyte calpain 1 using a continuous assay at pH 7.5 and 8 degrees Centigrade.
T2 sequence (whole entry): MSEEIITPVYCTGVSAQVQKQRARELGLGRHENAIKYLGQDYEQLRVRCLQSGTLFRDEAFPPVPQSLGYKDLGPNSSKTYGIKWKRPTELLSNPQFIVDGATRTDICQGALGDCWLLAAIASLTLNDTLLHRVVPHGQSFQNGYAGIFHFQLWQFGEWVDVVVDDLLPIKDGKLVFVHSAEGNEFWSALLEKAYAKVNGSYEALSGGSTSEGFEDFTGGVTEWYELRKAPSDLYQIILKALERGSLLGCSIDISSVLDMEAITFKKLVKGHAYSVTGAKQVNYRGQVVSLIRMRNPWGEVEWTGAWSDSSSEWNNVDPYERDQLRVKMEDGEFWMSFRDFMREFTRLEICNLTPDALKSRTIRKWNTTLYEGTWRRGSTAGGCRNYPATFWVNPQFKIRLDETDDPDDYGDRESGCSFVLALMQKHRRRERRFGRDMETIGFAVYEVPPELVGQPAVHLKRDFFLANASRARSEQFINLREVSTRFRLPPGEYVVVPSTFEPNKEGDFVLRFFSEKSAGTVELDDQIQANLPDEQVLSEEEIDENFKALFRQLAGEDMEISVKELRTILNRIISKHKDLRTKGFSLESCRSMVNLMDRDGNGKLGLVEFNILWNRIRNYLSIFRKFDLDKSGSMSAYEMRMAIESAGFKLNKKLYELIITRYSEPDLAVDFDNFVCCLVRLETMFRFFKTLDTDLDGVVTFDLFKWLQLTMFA

[2] = molecular target: Cathepsin B (Homo sapiens) (UniProt P07858); assay: Inhibition of Cathepsin B at pH 6.5 and 25 degrees Centigrade.
[3] = molecular target: Cathepsin B (Homo sapiens) (UniProt P07858); assay: Inhibition of Cathepsin B at 8 degrees Centigrade.
[4] = molecular target: T2, Calpain-1 catalytic subunit (Homo sapiens); assay: Inhibition of Human erythrocyte calpain 1 using a continuous assay at pH 7.5 and 8 degrees Centigrade
[5] = molecular target: Procathepsin L (Homo sapiens) (UniProt P07711); assay: Inhibitory activity against Cathepsin L at 8 degrees Centigrade.
[6] = molecular target: Cathepsin B (Homo sapiens) (UniProt P07858); assay: Inhibition of Cathepsin B at pH 6.5 and 250 (1/M 1/s) 8 degrees Centigrade.
[7] = molecular target: Cathepsin B (Homo sapiens) (UniProt P07858); assay: Inhibition of Cathepsin B at pH 6.5 and 360000 (1/M 1/s) at 8 degrees Centigrade.

Procathepsin L (Homo sapiens), sequence (P07711 114-333 limits assumed): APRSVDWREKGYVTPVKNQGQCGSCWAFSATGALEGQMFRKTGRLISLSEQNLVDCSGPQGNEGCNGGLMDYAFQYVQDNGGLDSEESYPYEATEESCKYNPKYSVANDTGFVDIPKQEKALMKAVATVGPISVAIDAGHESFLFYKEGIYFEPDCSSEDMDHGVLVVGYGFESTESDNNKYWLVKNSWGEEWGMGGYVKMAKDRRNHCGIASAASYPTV

K obs / 1 (Caspase-1 (Homo sapiens))	K obs / 1 [2]	Compound	further results
< 500 M⁻¹ s⁻¹	2300 M⁻¹ s⁻¹	C[C@H](NC(=O)[C@@H](Cc1ccccc1)NC(=O)OCc1ccccc1)C(=O)COc1cc(C(F)(F)F)nn1-c1ccccc1	K obs / 1 [1]: < 500 M⁻¹ s⁻¹
50200 M⁻¹ s⁻¹	< 500 M⁻¹ s⁻¹	CC(C)[C@@H](NC(=O)OCc1ccccc1)C(=O)N[C@@H](CC(=O)O)C(=O)COP(=O)(c1ccccc1)c1ccccc1	
11800 M⁻¹ s⁻¹		O=C(O)C[C@H](NC(=O)OCc1ccccc1)C(=O)COP(=O)(c1ccccc1)c1ccccc1	
< 500 M⁻¹ s⁻¹	< 500 M⁻¹ s⁻¹	CC(C)C[C@@H](NC(=O)OCc1ccccc1)C(=O)N[C@@H](Cc1ccccc1)C(=O)COP(=O)(c1ccccc1)c1ccccc1	K obs / 1 [4]: 10000 M⁻¹ s⁻¹
< 500 M⁻¹ s⁻¹	400000 M⁻¹ s⁻¹	C[C@H](NC(=O)[C@@H](Cc1ccccc1)NC(=O)OCc1ccccc1)C(=O)COP(=O)(c1ccccc1)c1ccccc1	
	1700 M⁻¹ s⁻¹	CC(C)[C@H](NC(=O)OCc1ccccc1)C(=O)N[C@@H](C)C(=O)N[C@@H](CC(=O)O)C(=O)COP(=O)(c1ccccc1)c1ccccc1	
	< 500 M⁻¹ s⁻¹	CC(C)C[C@@H](NC(=O)OCc1ccccc1)C(=O)N[C@@H](Cc1ccccc1)C(=O)COc1cc(C(F)(F)F)nn1-c1ccccc1	K obs / 1 [1]: < 500 M⁻¹ s⁻¹
< 500 M⁻¹ s⁻¹		C[C@H](NC(=O)[C@@H](Cc1ccccc1)NC(=O)OCc1ccccc1)C(=O)COC(=O)c1c(Cl)cccc1Cl	K obs / 1 [7]: 1.5e+06 M⁻¹ s⁻¹; K obs / 1 [4]: 300 M⁻¹ s⁻¹

Further lines, the molecule ahead of its results:

Compound	K obs / 1 (Caspase-1 (Homo sapiens))	K obs / 1 [2]	further results
CC(C)[C@@H](NC(=O)OCc1ccccc1)C(=O)N[C@@H](CC(=O)O)C(=O)COP(=O)(c1ccc(Cl)cc1)c1ccc(Cl)cc1	77300 M⁻¹ s⁻¹		
CC(C)C[C@@H](NC(=O)[C@@H](C)NC(=O)OCc1ccccc1)C(=O)N[C@H](Cc1ccccc1)C(=O)COC(=O)c1c(F)ccc(OCCN2CCOCC2)c1F			K obs / 1 [3]: 400 M⁻¹ s⁻¹; K obs / 1 [4]: 32000 M⁻¹ s⁻¹; K obs / 1 [5]: 28000 M⁻¹ s⁻¹
CC(C)C[C@@H](NC(=O)OCc1ccccc1)C(=O)N[C@@H](Cc1ccccc1)C(=O)COC(=O)c1c(Cl)cccc1Cl			K obs / 1 [1]: 11400 M⁻¹ s⁻¹; K obs / 1 [6]: < 1000 M⁻¹ s⁻¹
CC(C)[C@@H](NC(=O)OCc1ccccc1)C(=O)N[C@@H](CC(=O)O)C(=O)COP(C)(C)=O	12300 M⁻¹ s⁻¹		
CC(C)[C@@H](NC(=O)OCc1ccccc1)C(=O)N[C@@H](CC(=O)O)C(=O)CO[PH](=O)c1ccccc1 (some centres not stated)	< 500 M⁻¹ s⁻¹		
CC(C)C[C@@H](NC(=O)[C@@H](C)NC(=O)OCc1ccccc1)C(=O)N[C@H](Cc1ccccc1)C(=O)COC(=O)c1c(F)cccc1F			K obs / 1 [3]: 100 M⁻¹ s⁻¹; K obs / 1 [4]: 31000 M⁻¹ s⁻¹; K obs / 1 [5]: 300 M⁻¹ s⁻¹
CC(C)[C@@H](NC(=O)OCc1ccccc1)C(=O)N[C@@H](CC(=O)O)C(=O)COc1cc(C(F)(F)F)nn1-c1ccccc1	20000 M⁻¹ s⁻¹	< 500 M⁻¹ s⁻¹	
CC(C)[C@H](NC(=O)OCc1ccccc1)C(=O)N[C@@H](C)C(=O)N[C@@H](CC(=O)O)C(=O)COP(=O)(c1ccc(Cl)cc1)c1ccc(Cl)cc1	230000 M⁻¹ s⁻¹		
CC(C)[C@@H](NC(=O)OCc1ccccc1)C(=O)N[C@@H](CC(=O)O)C(=O)COC(=O)c1c(Cl)cccc1Cl	30000 M⁻¹ s⁻¹		
